# Reference: PMC7576608, “Mechanisms of telomerase inhibition by oxidized and therapeutic dNTPs” (Nature Communications, 2020)
# Values joined by “and” are separate entries in the source; they are usually repeats but may differ in a detail not shown here. Equal values may be shown once. Read-outs that look alike come from different tables or passages of the source.
# Target: telomerase (Homo sapiens, UniProt O14746)
# Assay: Telomerase repeat processivity IC50: modified dNTP titrated into reactions with all four natural dNTPs
# Format: biochemical
# Design: made in house; anti-FLAG immunopurification, eluted with 3xFLAG peptide
# Details: for YIntercept (line fit of ln(100-%LB) vs # telomere repeats) / ln(100-%LB): n1-n3; for Processivity R 1/2: replicates n1-n3
# Excerpt: In order to better understand the ability of modified dNTPs to compete with natural dNTPs for telomerase utilization, we added modified dNTPs to reactions containing all four natural dNTPs. […] The calculated IC50 determines the concentration required to reduce repeat processivity in the bulk reactions by half. However, it is important to note that bulk experiments cannot distinguish effects on individual telomeres, since extended telomeres mask unextended telomeres. Incorporation of a chain terminator during any step will terminate extension of the affected telomere, and just five critically short telomeres are sufficient to trigger senescence. Therefore, repeat processivity IC50 values are not necessarily an indicator of the inhibitory potency, but provide information on selectivity for modified dNTPs compared to natural dNTPs. […] The ability to purify sufficient quantities of tcTERT enables characterization of the catalytic nucleotide addition by pre-steady-state single turnover kinetics using a defined DNA–RNA primer–template substrate. The catalytic efficiency of incorporating a single dNTP is measured by dividing the observed nucleotide incorporation rate constant, kpol, by the equilibrium dissociation constant for dNTP binding to the tcTERT–primer–template complex (Kd)[44].
# The reactions were started by the addition of 3 μl of immunopurified telomerase eluent, incubated at 37 °C for 1 h, then terminated with 2 μl of […] and heat inactivated at 65 °C for 20 min. An equal volume of loading buffer (94% formamide, 0.1× TBE, 0.1% bromophenol blue, 0.1% xylene cyanol) was added to the reaction eluent. The samples were heat denatured for 10 min at 100 °C and loaded onto a 14% denaturing acrylamide gel (7 M urea, 1× TBE) and electrophoresed for 90 min at constant 38 W. Samples were imaged using a Typhoon phosphorimager (GE Healthcare). Percent primer extension was calculated with ImageQuant TL 8.2 by measuring the intensity of each product band and dividing by the total radioactivity in the lane or total products, as indicated in the figure legends.
# The processivity was calculated as described[40],[67]. Repeat processivity from the direct telomerase extension assays was calculated as R1/2 (equivalent to the half-time for decay in an exponential time course), which represents the median length of DNA product formed, expressed in terms of number of telomere repeats. First, the total volume counts for each product band extend by one or more telomere repeats were obtained using Image Quant TL. The volume counts were then normalized by dividing by the number of radiolabeled guanosines incorporated into the extended products based on the number of repeats added, termed corrected volume (corr vol). The “percent left behind” (%LB) was calculated for each product band by summing the counts for that product band and for every product band below (shorter products), divided by the total counts for the lane, and then multiplied by 100. The natural log of (100−%LB) was calculated and then plotted vs. repeat number for each product length. A linear regression line was fit to the data to determine the slope of the line. The R1/2 value was calculated by dividing −ln(2) by the slope of each fitted line (R1/2 = −ln(2)/slope).
# Supplementary Fig 8. IC50 values for telomerase processivity inhibition. Telomerase reactions were conducted with cellular relevant concentrations of all four natural dNTPs and increasing concentrations of the modified dNTP analog from 0 to 10,000 μM to calculate. (a) The natural log of (100-%LB) was plotted vs repeat number. A straight line was fit to the data and the R1/2 value was calculated by dividing –ln(2) by the slope of each line. Plots shown from one experiment are […]
# [1] = fit of R 1/2 vs log(concentration), 8-oxo-dATP, replicates N1-N3
# Sequence of telomerase (O14746 whole entry): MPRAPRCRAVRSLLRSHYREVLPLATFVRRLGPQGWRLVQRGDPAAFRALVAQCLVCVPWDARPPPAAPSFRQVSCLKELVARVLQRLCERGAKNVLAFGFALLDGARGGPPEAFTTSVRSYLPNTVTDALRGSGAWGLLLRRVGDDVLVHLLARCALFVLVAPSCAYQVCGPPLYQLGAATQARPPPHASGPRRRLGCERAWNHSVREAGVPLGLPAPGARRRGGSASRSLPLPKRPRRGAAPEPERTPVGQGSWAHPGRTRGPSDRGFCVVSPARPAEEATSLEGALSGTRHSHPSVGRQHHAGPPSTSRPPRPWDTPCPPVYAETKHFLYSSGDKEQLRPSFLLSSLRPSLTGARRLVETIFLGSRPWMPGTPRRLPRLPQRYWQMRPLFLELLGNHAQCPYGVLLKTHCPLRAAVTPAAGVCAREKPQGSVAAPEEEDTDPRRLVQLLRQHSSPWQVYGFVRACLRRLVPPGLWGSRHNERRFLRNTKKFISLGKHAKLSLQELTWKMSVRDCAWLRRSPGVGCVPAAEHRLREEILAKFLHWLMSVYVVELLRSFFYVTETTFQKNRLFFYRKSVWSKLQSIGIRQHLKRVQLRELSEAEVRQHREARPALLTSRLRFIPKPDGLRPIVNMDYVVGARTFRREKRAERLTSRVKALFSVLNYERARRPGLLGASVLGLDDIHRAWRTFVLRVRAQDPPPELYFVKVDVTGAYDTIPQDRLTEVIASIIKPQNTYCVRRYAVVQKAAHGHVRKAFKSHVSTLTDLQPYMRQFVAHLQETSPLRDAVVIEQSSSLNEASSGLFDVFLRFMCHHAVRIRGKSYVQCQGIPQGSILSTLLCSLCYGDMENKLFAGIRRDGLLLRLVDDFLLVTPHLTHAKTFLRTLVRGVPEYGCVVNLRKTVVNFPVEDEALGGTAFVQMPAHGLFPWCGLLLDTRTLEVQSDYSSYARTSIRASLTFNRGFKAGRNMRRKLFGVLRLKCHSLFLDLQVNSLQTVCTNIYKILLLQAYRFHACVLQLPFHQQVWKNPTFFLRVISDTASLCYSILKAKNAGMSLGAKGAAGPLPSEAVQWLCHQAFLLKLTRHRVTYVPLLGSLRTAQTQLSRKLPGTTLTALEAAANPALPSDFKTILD
structure (smiles),measurement,setting,value
Nc1ncnc2c1[nH]c(=O)n2C1CC(O)C(COP(=O)(O)OP(=O)(O)OP(=O)(O)O)O1 (centres unmarked) [8-oxo-dATP],YIntercept (line fit of ln(100-%LB) vs # telomere repeats),8-oxo-dATP 31μM,3.85 and 3.01 and 3.93
same,ln(100-%LB),"8-oxo-dATP 31μM, telomere repeat 3",2.65 and 1.66 and 2.57
same,ln(100-%LB),"8-oxo-dATP 31μM, telomere repeat 4",2.41 and 1.27 and 2.30
same,Processivity R 1/2,8-oxo-dATP 31.25 μM,2.10 (2×) and 1.89
same,YIntercept (line fit of ln(100-%LB) vs # telomere repeats),8-oxo-dATP 62μM,3.73 and 4.08 and 3.84
same,ln(100-%LB),"8-oxo-dATP 62μM, telomere repeat 2",3.20
same,ln(100-%LB),"8-oxo-dATP 62μM, telomere repeat 3",2.53 and 2.54 and 2.74
same,ln(100-%LB),"8-oxo-dATP 62μM, telomere repeat 4",2.27 and 2.24 and 2.50
same,ln(100-%LB),"8-oxo-dATP 62μM, telomere repeat 5",2.02 and 1.94 and 2.24
same,ln(100-%LB),"8-oxo-dATP 62μM, telomere repeat 6",1.71 and 1.56 and 1.91
same,ln(100-%LB),"8-oxo-dATP 62μM, telomere repeat 7",1.38 and 1.06 and 1.53
same,ln(100-%LB),"8-oxo-dATP 62μM, telomere repeat 8",1.13 and 0.68 and 1.26
same,Processivity R 1/2,8-oxo-dATP 62.5 μM,1.60 (2×) and 2.26
same,YIntercept (line fit of ln(100-%LB) vs # telomere repeats),8-oxo-dATP 250μM,3.94 and 3.80 and 3.85
same,Processivity R 1/2,8-oxo-dATP 250 μM,1.82 (2×) and 2.54
same,ln(100-%LB),"8-oxo-dATP 250μM, telomere repeat 2",3.33 and 3.42 and 3.45
same,ln(100-%LB),"8-oxo-dATP 250μM, telomere repeat 3",2.64 and 2.77 and 2.84
same,ln(100-%LB),"8-oxo-dATP 250μM, telomere repeat 4",2.37 and 2.53 and 2.60
same,ln(100-%LB),"8-oxo-dATP 250μM, telomere repeat 5",2.09 and 2.29 and 2.37
same,ln(100-%LB),"8-oxo-dATP 250μM, telomere repeat 6",1.75 and 2.02 and 2.10
same,ln(100-%LB),"8-oxo-dATP 250μM, telomere repeat 7",1.29 and 1.68 and 1.81
same,ln(100-%LB),"8-oxo-dATP 250μM, telomere repeat 8",0.96 and 1.40 and 1.57
same,ln(100-%LB),"8-oxo-dATP 250μM, telomere repeat 9",0.67 and 1.15 and 1.32
same,YIntercept (line fit of ln(100-%LB) vs # telomere repeats),8-oxo-dATP 500μM,3.61 and 4.18 and 3.88
same,Processivity R 1/2,8-oxo-dATP 500 μM,1.42 (2×) and 2.03
same,ln(100-%LB),"8-oxo-dATP 500μM, telomere repeat 2",3.10 and 3.59 and 3.36
same,ln(100-%LB),"8-oxo-dATP 500μM, telomere repeat 3",2.50 and 3.01 and 2.60
same,ln(100-%LB),"8-oxo-dATP 500μM, telomere repeat 4",2.24 and 2.80 and 2.29
same,ln(100-%LB),"8-oxo-dATP 500μM, telomere repeat 5",1.94 and 2.56 and 2.01
same,ln(100-%LB),"8-oxo-dATP 500μM, telomere repeat 6",1.62 and 2.28 and 1.70
same,ln(100-%LB),"8-oxo-dATP 500μM, telomere repeat 7",1.26 and 1.91 and 1.22
same,ln(100-%LB),"8-oxo-dATP 500μM, telomere repeat 8",0.97 and 1.63 and 0.93
same,YIntercept (line fit of ln(100-%LB) vs # telomere repeats),8-oxo-dATP 750μM,4.26 and 4.00 and 3.87
same,Processivity R 1/2,8-oxo-dATP 750 μM,1.36 (2×) and 2.25
same,ln(100-%LB),"8-oxo-dATP 750μM, telomere repeat 2",3.17 and 3.44 and 3.29
same,ln(100-%LB),"8-oxo-dATP 750μM, telomere repeat 3",2.50 and 2.85 and 2.65
same,ln(100-%LB),"8-oxo-dATP 750μM, telomere repeat 4",2.17 and 2.63 and 2.39
same,ln(100-%LB),"8-oxo-dATP 750μM, telomere repeat 5",1.81 and 2.42 and 2.15
same,ln(100-%LB),"8-oxo-dATP 750μM, telomere repeat 6",1.40 and 2.17 and 1.87
same,YIntercept (line fit of ln(100-%LB) vs # telomere repeats),8-oxo-dATP 1000μM,4.48 and 4.47 and 4.44
same,Processivity R 1/2,8-oxo-dATP 1000 μM,0.53 (2×) and 0.83
same,YIntercept (line fit of ln(100-%LB) vs # telomere repeats),8-oxo-dATP 1500μM,5.00 and 4.48 and 4.84
same,Processivity R 1/2,8-oxo-dATP 1500 μM,0.00
same,Processivity R 1/2,8-oxo-dATP 2000 μM,0.00
same,IC50,"cellular relevant natural dNTPs, modified dNTP titrated 0 to 10,000 μM, based on repeat processivity, mean ± SD, read-out: Telomerase processivity IC50",946 ± 49 µM
same,LogIC50,"fit of R 1/2 vs log(concentration μM), 8-oxo-dATP, replicates N1-N3",2.95 and 2.99 (2×)
same,Bottom (best-fit value),[1],-0.12 and 0.69 and -0.000954
same,HillSlope,[1],-4.30 and -46.77 and -16.13
same,Span (best-fit value),[1],1.94 and 1.65 and 2.29
same,Top (best-fit value),[1],1.81 and 2.33 and 2.29
same,IC50,"log of processivity IC50 (concentration in μM), Supplementary Fig 8b, read-out: Log IC50 (converted)",794 µM
same,IC50,"repeat processivity R 1/2, 8-oxo-dATP, mean of N1-N3, read-out: Mean IC50",946 µM
same,IC50,"repeat processivity R 1/2, 8-oxo-dATP, single replicates N1-N3, read-out: IC50",890 µM and 982 µM and 966 µM
